Earlier results as cited in patent US9682109B2, “Antiviral resistance mutants and applications thereof” (ABL SA, priority 2005, dated 2017).
Counter-ions that a name gives are not always drawn.

Legend:
[1] = tested on: wild-type and lamivudine-resistant strains of HBV
HBV [2] = conditions: 30 mg daily dose, over 12 weeks, phase II studies (Heathcote et al 1998)
HBV [3] = tested on: HBV

SMILES | clinical activity [1] | mean decrease in viremia (HBV [2]) | inhibitor of HBV replication (HBV replication) | antiviral activity against HBV (HBV [3]) | antiviral activity against HIV (HIV)
CC(C)(C)C(=O)OCOP(=O)(COCCn1cnc2c(N)ncnc21)OCOC(=O)C(C)(C)C [ADV, adefovir dipivoxil] | demonstrated clinical activity | 4 log10 | potent inhibitor | – | –
Nc1nc(=O)n([C@@H]2CS[C@H](CO)O2)cc1F [FTC, (−)-β-L-2′-3′-dideoxy-5-fluoro-3′-thiacydidine] | – | – | – | activity | activity
CC(C)OC(=O)OCOP(=O)(CO[C@H](C)Cn1cnc2c(N)ncnc21)OCOC(=O)OC(C)C [TFV, tenofovir disoproxil fumarate] | – | – | – | antiviral activity | antiviral activity
